From patent publication US8173682B2, “Substituted pyridones as inhibitors of poly(ADP-ribose) polymerase (PARP)” (Aventis Pharmaceuticals Inc., priority 2004, dated 2012) come the findings set out here.

This assay deals with recombinantly expressed human PARP-1 enzyme (Homo sapiens, UniProt P09874). Kind of assay: PARP enzyme assay, Method B (tritium-labeled NAD incorporation). It is filed as biochemical. As to the method: Method B: PARP Enzyme Assay:
The IC50 is determined in this method by incubating the substances to be tested with the DNA-activated, recombinantly expressed and purified PARP-1 enzyme. Specifically, various concentrations of the test substance are incubated in 50 μL of reaction solution, which contains 50 mM Tris, 5 mM MgCl2, 1 mM DTT, 200 μM NAD, 0.1 m Ci/mL tritium-labeled NAD, 0.1 mg/mL DNA, 0.1 mg/mL histones, 2 μg/mL recombinantly expressed human PARP-1 enzyme, pH=8.0, at room temperature for 1 hour. The reaction is stopped by adding 150 μL of 20% trichloroacetic acid, and the radiolabeled protein constituents are precipitated. After incubation on ice for 10 minutes, the labeled, insoluble constituents are separated off through a glass fiber filter and, after washing with 20% trichloroacetic acid three times, the radioactivity incorporated by the PARP-1 enzyme is measured by radioluminescence. Consideration of the incorporation rates determined in this way as a function of the concentration of the test substance results in IC50 as the concentration of the test substance which reduces the incorporation rate to half the maximum value attainable (incubation without inhibitor).
The IC50 (fifty percent inhibitory concentration of the test substance in a solution—expressed at micromolar (μM) concentration) measured in accordance with these procedures for the compounds of this invention are summarized in Table 1.

[1] abbreviates: Method B, 200 μM NAD, room temperature 1 hour, pH 8.0, read-out: IC50 (μM)/Method B.

Where two headings read alike, the source gives them in different places.

recombinantly expressed human PARP-1 enzyme, sequence (P09874 whole entry): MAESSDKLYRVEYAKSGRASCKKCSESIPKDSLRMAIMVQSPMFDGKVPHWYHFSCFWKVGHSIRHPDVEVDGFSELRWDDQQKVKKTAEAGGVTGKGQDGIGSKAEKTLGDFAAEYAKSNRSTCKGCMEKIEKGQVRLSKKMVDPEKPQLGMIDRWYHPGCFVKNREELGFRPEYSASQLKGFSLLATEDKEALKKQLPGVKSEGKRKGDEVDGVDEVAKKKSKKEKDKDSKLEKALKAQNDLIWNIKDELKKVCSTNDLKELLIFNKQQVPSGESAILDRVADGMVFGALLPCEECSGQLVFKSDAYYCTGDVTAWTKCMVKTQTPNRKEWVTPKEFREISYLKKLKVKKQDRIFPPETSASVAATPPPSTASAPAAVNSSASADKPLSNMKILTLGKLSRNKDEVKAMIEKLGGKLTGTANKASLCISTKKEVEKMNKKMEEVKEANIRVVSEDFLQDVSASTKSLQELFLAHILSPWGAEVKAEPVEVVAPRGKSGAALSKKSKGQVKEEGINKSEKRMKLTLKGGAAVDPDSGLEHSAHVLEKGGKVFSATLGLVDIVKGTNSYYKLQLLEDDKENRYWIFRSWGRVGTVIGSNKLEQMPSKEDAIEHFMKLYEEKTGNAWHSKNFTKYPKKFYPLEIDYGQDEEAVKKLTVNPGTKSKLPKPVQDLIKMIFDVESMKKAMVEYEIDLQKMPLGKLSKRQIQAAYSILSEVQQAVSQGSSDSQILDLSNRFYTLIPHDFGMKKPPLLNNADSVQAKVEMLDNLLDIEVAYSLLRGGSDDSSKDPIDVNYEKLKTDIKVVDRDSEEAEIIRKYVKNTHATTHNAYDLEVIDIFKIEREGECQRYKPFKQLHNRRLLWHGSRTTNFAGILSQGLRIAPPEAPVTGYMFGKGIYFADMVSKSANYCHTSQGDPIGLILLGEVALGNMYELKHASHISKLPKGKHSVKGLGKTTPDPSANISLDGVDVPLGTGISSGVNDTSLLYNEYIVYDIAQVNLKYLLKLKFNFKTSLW

Consider `CCc1cc(-c2ccc(C(=O)N3CCCC3)cn2)c(C)[nH]c1=O` [Example 211, 5′-Ethyl-2′-methyl-5-(pyrrolidine-1-carbonyl)-1′H-[2,3′]bipyridinyl-6′-one], for which the IC50 under setting [1] was 8.6 µM. Same read-out and setting: the value for `CCc1cc(-c2ccc(C(=O)NC3CCCC3)cn2)c(C)[nH]c1=O` [Example 212, 5′-Ethyl-2′-methyl-6′-oxo-1′,6′-dihydro-[2,3′]bipyridinyl-5-carboxylic acid cyclopentylamide] was 12.9 µM. On the same count and under the same terms, under `CCc1cc(-c2cc(C(=O)NCCc3ccc([N+](=O)[O-])cc3)ccn2)c(C)[nH]c1=O` [Example 213, 5′-Ethyl-2′-methyl-6′-oxo-1′,6′-dihydro-[2,3′]bipyridinyl-4-carboxylic acid [2-(4-nitro-phenyl)-ethyl]-amide] stands 0.21 µM; under `CCc1cc(-c2cc(C(=O)N3CCCC3)ccn2)c(C)[nH]c1=O` [Example 214, 5′-Ethyl-2′-methyl-4-(pyrrolidine-1-carbonyl)-1′H-[2,3′]bipyridinyl-6′-one], 1.4 µM. The same measure, in the same setting: under `CCCCNC(=O)c1ccnc(-c2cc(CC)c(=O)[nH]c2C)c1` [Example 215, 5′-Ethyl-2′-methyl-6′-oxo-1′,6′-dihydro-[2,3′]bipyridinyl-4-carboxylic acid butylamide] stands 1.25 µM; under `CCc1cc(-c2cc(C(=O)NC3CCCC3)ccn2)c(C)[nH]c1=O` [Example 216, 5′-Ethyl-2′-methyl-6′-oxo-1′,6′-dihydro-[2,3′]bipyridinyl-4-carboxylic acid cyclopentylamide], 1.5 µM; under `CCc1cc(-c2cc(C(=O)NCCN3CCOCC3)ccn2)c(C)[nH]c1=O` [Example 217, 5′-Ethyl-2′-methyl-6′-oxo-1′,6′-dihydro-[2,3′]bipyridinyl-4-carboxylic acid (2-morpholin-4-yl-ethyl)-amide], 2.87 µM. On to `CCc1cc(-c2cc(C(=O)NCCc3ccncc3)ccn2)c(C)[nH]c1=O` [Example 218, 5′-Ethyl-2′-methyl-6′-oxo-1′,6′-dihydro-[2,3′]bipyridinyl-4-carboxylic acid (2-pyridin-4-yl-ethyl)-amide], for which, under setting [1], the IC50 was determined as 0.58 µM. On the same count and under the same terms, the value for `CCc1cc(-c2cncc(C(=O)NC3CCCC3)c2)c(C)[nH]c1=O` [Example 219, 5′-Ethyl-2′-methyl-6′-oxo-1′,6′-dihydro-[3,3′]bipyridinyl-5-carboxylic acid cyclopentylamide] was 1.53 µM. On the same count and under the same terms, the value for `CCc1cc(-c2cncc(C(=O)NCc3ccccc3)c2)c(C)[nH]c1=O` [Example 220, 5′-Ethyl-2′-methyl-6′-oxo-1′,6′-dihydro-[3,3′]bipyridinyl-5-carboxylic acid benzylamide] was 1.27 µM; that for `CCc1cc(-c2cncc(C(=O)NCc3ccccn3)c2)c(C)[nH]c1=O` [Example 221, 5′-Ethyl-2′-methyl-6′-oxo-1′,6′-dihydro-[3,3′]bipyridinyl-5-carboxylic acid (pyridin-2-ylmethyl)-amide] was 2.04 µM. Still for that read-out and setting: the value for `CCc1cc(-c2cncc(C(=O)NCc3cccnc3)c2)c(C)[nH]c1=O` [Example 222, 5′-Ethyl-2′-methyl-6′-oxo-1′,6′-dihydro-[3,3′]bipyridinyl-5-carboxylic acid (pyridin-3-ylmethyl)-amide] was 0.75 µM. For `CCCCNC(=O)c1cncc(-c2cc(CC)c(=O)[nH]c2C)c1` [Example 223, 5′-Ethyl-2′-methyl-6′-oxo-1′,6′-dihydro-[3,3′]bipyridinyl-5-carboxylic acid butylamide], under setting [1], the IC50 came out at 0.92 µM.

For `CCc1cc(-c2cncc(C(=O)NC(CC)c3ccc(C)nc3)c2)c(C)[nH]c1=O` (centres unmarked) [Example 224, 5′-Ethyl-2′-methyl-6′-oxo-1′,6′-dihydro-[3,3′]bipyridinyl-5-carboxylic acid [1-(6-methyl-pyridin-3-yl)-propyl]-amide], the IC50 under setting [1] was determined as 5.9 µM. The same measure, in the same setting: the value for `CCc1cc(-c2cncc(C(=O)NCC(N)=O)c2)c(C)[nH]c1=O` [Example 225, 5′-Ethyl-2′-methyl-6′-oxo-1′,6′-dihydro-[3,3′]bipyridinyl-5-carboxylic acid carbamoylmethyl-amide] was 5.5 µM; that for `CCc1cc(-c2cncc(C(=O)N3CCCC3)c2)c(C)[nH]c1=O` [Example 226, 5-Ethyl-2-methyl-5′-(pyrrolidine-1-carbonyl)-1H-[3,3′]bipyridinyl-6-one] was 0.95 µM. The same measure, in the same setting: under `CCc1cc(-c2cncc(C(=O)N(CC)CC)c2)c(C)[nH]c1=O` [Example 227, 5′-Ethyl-2′-methyl-6′-oxo-1′,6′-dihydro-[3,3′]bipyridinyl-5-carboxylic acid diethylamide] stands 1.98 µM; under `CCc1cc(-c2cncc(C(=O)NC(c3cccnc3)C3CC3)c2)c(C)[nH]c1=O` (centres unmarked) [Example 228, 5′-Ethyl-2′-methyl-6′-oxo-1′,6′-dihydro-[3,3′]bipyridinyl-5-carboxylic acid (cyclopropyl-pyridin-3-yl-methyl)-amide], 10.7 µM. Same read-out and setting: under `CCc1cc(-c2cncc(C(=O)NC[C@H](C)O)c2)c(C)[nH]c1=O` [Example 229, 5′-Ethyl-2′-methyl-6′-oxo-1′,6′-dihydro-[3,3′]bipyridinyl-5-carboxylic acid (2-hydroxy-propyl)-amide] stands 4.7 µM.

As to `CCc1cc(-c2cncc(C(=O)NCCc3ccc([N+](=O)[O-])cc3)c2)c(C)[nH]c1=O` [Example 230, 5′-Ethyl-2′-methyl-6′-oxo-1′,6′-dihydro-[3,3′]bipyridinyl-5-carboxylic acid [2-(4-nitro-phenyl)-ethyl]-amide], under setting [1], the IC50 amounted to 0.13 µM.

For `CCc1cc(-c2cncc(C(=O)N3CC(O)CC3C(=O)OC)c2)c(C)[nH]c1=O` (centres unmarked) [Example 231, 1-(5′-Ethyl-2′-methyl-6′-oxo-1′,6′-dihydro-[3,3′]bipyridinyl-5-carbonyl)-4-hydroxy-pyrrolidine-2-carboxylic acid methyl ester], the IC50 under setting [1] is 14.8 µM. Still for that read-out and setting: under `CCc1cc(-c2cncc(C(=O)NCCc3ccccc3O)c2)c(C)[nH]c1=O` [Example 232, 5′-Ethyl-2′-methyl-6′-oxo-1′,6′-dihydro-[3,3′]bipyridinyl-5-carboxylic acid [2-(2-hydroxy-phenyl)-ethyl]-amide] stands 0.82 µM; under `CCc1cc(-c2cncc(C(=O)N(C)CC(N)=O)c2)c(C)[nH]c1=O` [Example 233, 5′-Ethyl-2′-methyl-6′-oxo-1′,6′-dihydro-[3,3′]bipyridinyl-5-carboxylic acid carbamoylmethyl-methyl-amide], 1.65 µM. Turning to `CCc1cc(-c2cncc(C(=O)N3CCC(=O)CC3)c2)c(C)[nH]c1=O` [Example 234, 5-Ethyl-2-methyl-5′-(4-oxo-piperidine-1-carbonyl)-1H-[3,3′]bipyridinyl-6-one], the IC50 was determined as 2.46 µM. Regarding `CCc1cc(-c2cncc(C(=O)N(CC)Cc3ccncc3)c2)c(C)[nH]c1=O` [Example 235, 5′-Ethyl-2′-methyl-6′-oxo-1′,6′-dihydro-[3,3′]bipyridinyl-5-carboxylic acid ethyl-pyridin-4-ylmethyl-amide], the IC50 under setting [1] amounted to 1.86 µM. Still for that read-out and setting: the value for `CCc1cc(-c2cncc(C(=O)NCCc3ccccc3)c2)c(C)[nH]c1=O` [Example 236, 5′-Ethyl-2′-methyl-6′-oxo-1′,6′-dihydro-[3,3′]bipyridinyl-5-carboxylic acid phenethyl-amide] was 0.44 µM.
